Several values for one entry are separate records, joined by “and”; a condition that tells them apart may be missing. Equal values may be shown once. Read-outs that look alike come from different tables or passages of the source.
Key:
[1] = system: 60 cancer cell lines (NCI 60 cancer cell line series); test: NCI-DTP in vitro cancer screen, sulforhodamine B (SRB) growth inhibition, 48 hour exposure; format: cell-based, human
Protocol: Cancer Cell Line Preparation. Sixty cancer cell lines were obtained from the National Cancer Institute Developmental Therapeutics Program (NCI-DTP). Procedures for growing cells and testing compounds have been described previously (Scudiero et al., Cancer Res. 1988, 48:4827-4833; Stinson et al., Anticancer Res.; Myers et al., Electrophoresis 1997, 18:647-653). Cells are plated on day 0 at a density individualized for each cell line so that they will generally be sub-confluent at the end of the assay period. On day 1, a compound is added in the format for a duplicate-well, 5-dose, ten-fold interval dose response study.
No-drug, no-cell and no-growth controls are included. On day 3 the cells are processed for staining with sulforhodamine B (SRB), which reflects the amount of cell mass present at the end of a 48 hour exposure to the test agent. From dose response curves based on the SRB data, various parameters can be determined. The one used in the present study is the G15o, defined as the concentration of compound required to inhibit growth of the cell line by 50%. More precisely, the quantity used in the calculation to be described is the potency measure -log{GI50}.
Activity database (A). Table IA, consisting of the growth inhibition (GI5o) values for the 60 cell lines and 24 compounds, was created from the NCI-DTP in vitro cancer screen database. This subset of compounds was selected from the larger 23,000 compound database available from the DTP. The compounds were selected on the basis of their known mechanism of action and chemical structure. The average potency—log{GI50} was extracted from the comma-delimited text files available through the Web at http://www.nci.nih.gov/intra/lmp/jnwbio.htmrl. Subsequently, these log{GI5o} values were inspected manually and classified as indicating either Low, Medium or High sensitivity to each compound.

[2] = system: 60 cancer cell lines (NCI 60 cancer cell line series); details: cited from earlier work

OC[C@H]1O[C@@H](n2cnc3c2N=CNC[C@H]3O)C[C@@H]1O [2′-deoxycoformycin]
43: 2 # of Medium [1]
9: 1 # of Low [1]
1: sensitivity class Prostate PC-3(I) CL11001 [1] | sensitivity class Renal TK10 CL9024 [1] | sensitivity class Ovarian OVCAR-5 CL6003 ([1]; cell line Ovarian OVCAR-5, CL6003)
3.4: -Log (GI50) ([2]; Colon SW-620 (CL4009)) | -Log (GI50) ([2]; Leukemia CCRF-CEM(I) (CL7003)) | -Log (GI50) ([2]; Leukemia HL-60(I) (CL7008)) | -Log (GI50) ([2]; Leukemia MOLT-4 (CL7006)) | -Log (GI50) ([2]; Leukemia SR CL7019) | -Log (GI50) ([2]; Melanoma M14 (CL10014))
8: 3 # of High [1]
3 and 2: sensitivity class of the cell line to the compound (1 Low, 2 Medium, 3 High) [1]
2 and 1 and 3: classification of cell line as Low(1), Medium(2) or High(3) sensitivity to compound [1]
3.3: -Log (GI50) ([2]; Leukemia K562(I) CL7005) | -Log (GI50) ([2]; Leukemia RPMI-8226(I) (CL7010)) | -Log (GI50) ([2]; Melanoma LOX IMVI CL10001) | -Log (GI50) ([2]; Melanoma MALME-3M CL10002)
2: sensitivity class Renal 786-O CL9018 [1] | sensitivity class Renal A498 CL9013 [1] | sensitivity class Renal ACHN CL9023 [1] | sensitivity class Renal SN12C CL9008 [1] | sensitivity class Renal UO-31 CL9004 [1] | classification of cell line as Low(1), Medium(2) or High(3) sensitivity to compound ([1]; Colon SW-620 (CL4009)) | classification of cell line as Low(1), Medium(2) or High(3) sensitivity to compound ([1]; Leukemia CCRF-CEM(I) (CL7003)) | classification of cell line as Low(1), Medium(2) or High(3) sensitivity to compound ([1]; Leukemia HL-60(I) (CL7008)) | classification of cell line as Low(1), Medium(2) or High(3) sensitivity to compound ([1]; Leukemia K562(I) CL7005) | classification of cell line as Low(1), Medium(2) or High(3) sensitivity to compound ([1]; Leukemia MOLT-4 (CL7006)) | classification of cell line as Low(1), Medium(2) or High(3) sensitivity to compound ([1]; Leukemia RPMI-8226(I) (CL7010)) | classification of cell line as Low(1), Medium(2) or High(3) sensitivity to compound ([1]; Melanoma LOX IMVI CL10001) | classification of cell line as Low(1), Medium(2) or High(3) sensitivity to compound ([1]; Melanoma M14 (CL10014)) | classification of cell line as Low(1), Medium(2) or High(3) sensitivity to compound ([1]; Melanoma MALME-3M CL10002) | sensitivity class NSCLC NCI-H23(I) CL1001 ([1]; cell line NSCLC NCI-H23(I), CL1001) | sensitivity class NSCLC NCI-H332M CL1017 ([1]; cell line NSCLC NCI-H332M, CL1017) | sensitivity class NSCLC NCI-H460 CL1021 ([1]; cell line NSCLC NCI-H460, CL1021) | sensitivity class Ovarian IGROV1 CL6010 ([1]; cell line Ovarian IGROV1, CL6010) | sensitivity class Ovarian OVCAR-3 CL6001 ([1]; cell line Ovarian OVCAR-3, CL6001) | sensitivity class Ovarian OVCAR-4 CL6002 ([1]; cell line Ovarian OVCAR-4, CL6002) | sensitivity class Ovarian OVCAR-8 CL6005 ([1]; cell line Ovarian OVCAR-8, CL6005) | sensitivity class Ovarian SK-OV-3 CL6011 ([1]; cell line Ovarian SK-OV-3, CL6011)
3: sensitivity class Renal CAKI-1 CL9015 [1] | sensitivity class Renal RXF-393 CL9016 [1] | classification of cell line as Low(1), Medium(2) or High(3) sensitivity to compound ([1]; Leukemia SR CL7019) | sensitivity class NSCLC NCI-H522 CL1003 ([1]; cell line NSCLC NCI-H522, CL1003) | sensitivity class Prostate DU-145 CL11003 ([1]; cell line Prostate DU-145, CL11003)
3.5: -Log (GI50) [2]

— patent publication US20020051978A1, “Methods and compositions for the identification, assessment, prevention and therapy of human cancers” (priority 2000, published 2002)
